Molecular target: T1, Bvu (Phocaeicola vulgatus, UniProt A6L2D9)
T1 construct: gene BVU_2192
Assay: biochemical

T1 sequence (A6L2D9 entry or part of it): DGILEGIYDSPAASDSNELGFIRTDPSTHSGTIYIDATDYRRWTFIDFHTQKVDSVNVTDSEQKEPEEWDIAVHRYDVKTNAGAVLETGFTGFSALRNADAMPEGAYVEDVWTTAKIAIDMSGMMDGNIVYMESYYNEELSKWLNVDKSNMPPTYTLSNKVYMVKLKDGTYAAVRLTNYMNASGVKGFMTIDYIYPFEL

C=CC1=C(C)C2=Cc3c(C=C)c(C)c4[n]3[Fe][n]3c(c(C)c(CCC(=O)O)c3=CC3=NC(=C4)C(C)=C3CCC(=O)O)=CC1=N2 [Fe(II)heme]
Kd: 1.6 nM

Source: article PMC7956564, “Porphyromonas gingivalis HmuY and Bacteroides vulgatus Bvu—A Novel Competitive Heme Acquisition Strategy” (International Journal of Molecular Sciences, 2021)
